Consider 5 compounds from US7592351B2, “Substituted imidazo[1,2-a]pyridine compounds and pharmaceutical preparations containing substituted imidazo[1,2-a]pyridine compounds” (Gruenenthal GmbH, priority 2004, dated 2009).

For assay [1], the target named is T1, cannabinoid receptor 1 (CB1) (Rattus norvegicus, UniProt P20272).
T1 construct: Tissue: rat cerebellum; from tissue; host or cells: rat cerebellum membranes
The experiment in a line: Determination of affinity for cannabinoid receptor 1 (CB1) ([3H] WIN55,212-2 binding, rat cerebellum membranes). Also on record: species or system Sprague Dawley rats. The conditions noted are these: method (c). The text has this: (c) Determination of Affinity for Cannabinoid Receptor 1 (CB1)
The method was developed on the basis of the publication of D'Ambra et al, J. Med. Chem. 35, 124-135 (1992), but at variance therewith the ligand stated below is used. The disclosure of this article is hereby incorporated by reference.
• Sprague Dawley rats weighing between 150-350 g • (breeder: Charles River Deutschland, 32699 Extertal, Germany) • Ligand: [^3H] WIN55, 212-2; Perkin Elmer, item. no. NET 1058 • Ligand cold: WIN 55, 212-2 mesylate; Tocris; item. no. 1038 • HEPES: Sigma, item no. H-3375 • BSA: Sigma, item no. A-2153 • GF/B filter mats (Brandel Inc., cat. no. FP 100, size 2¼″×12¼″) • Ready Protein scintillating material (item no. 586604, Beckmann, 85716 Unterschlei ? heim) • Tissue: rat cerebellum • Tissue & incubation buffer: 20 mM HEPES pH 7.0. • Filtration buffer: 20 mM HEPES pH 7.0 containing 0.5 mg of BSA/ml which prevents adsorption. • Filter mat softening buffer: 20 mM HEPES pH 7.0 containing 5 mg of BSA/ml. B. Preparation of Cerebellum:
20 ml of ice-cooled buffer are used per 1 g of brain tissue. The brain tissue is disrupted within 30 seconds in the cold buffer with ice cooling at a rotational speed of 6000 rpm using a homogeniser from Kinematica, model Polytron PT-3000 with PT-DA-3012/2 drive unit. The resultant homogenate is then diluted with cold buffer to a ratio of 100 ml/g of tissue. Centrifugation is then performed for 15 minutes at 49,000 g and 4° C. Once centrifugation is complete, the supernatants are decanted and the precipitates resuspended in fresh, cold buffer. Acceptable suspension of the pellets is obtained at only 1000 rpm in the homogeniser with ice cooling and a processing time of at most 60 seconds. This last centrifugation step is repeated twice more (in each case washed with 20 mM HEPES pH 7.0). The precipitated is then suspended with buffer in a ratio of 1:120 (weight/volume).
Incubation is performed for 90 minutes at room temperature, i.e. 25° C. The batches are then rapidly suction filtered with the assistance of the Brandel Cell Harvester (model M-24-R, Adi Hassel, 80809 Munich, Germany) through GF/B filter mats, which have previously been softened in HEPES buffer pH 7.0 containing 5 mg/ml of BSA, and rewashed with 20 ml of filtration buffer (ice-cooled). After transferring the filters into scintillation vials and adding a 10 ml portion of scintillation liquid (Ready Protein) to each and then leaving to stand for 15 hours, the samples are measured in the scintillation counter (Perkin Elmer, model Wallac 1409).

Assay [2] concerns the target T2, vanilloid receptor VR1 (capsaicin receptor) (Rattus norvegicus, UniProt O35433).
T2 construct: isolated from the spinal cord of male Sprague Dawley rats (breeder: Charles River Deutschland, 32699 Extertal) and used for preparation of the membrane; from tissue; host or cells: rat spinal cord (cervical region and one third of the thoracic region) membranes
As to the kind of experiment: Determination of affinity for vanilloid receptor VR1 ([3H] resiniferatoxin binding, rat spinal cord membranes). Further details: species or system Sprague Dawley rats. To be noted: method (a); 10 μM; read-out: % VR1 binding % inhibition at 10 μM [2]. From the text:
This method was developed on the basis of the publication by Acs et al., J. Neurochem. 65, 301-308 (1995). The corresponding description is hereby introduced as a reference and is deemed to be part of the disclosure.
• Sprague Dawley rats weighing between 150-300 g • (breeder: Charles River Deutschland, 32699 Extertal, Germany) • HEPES (item no. H-3375, SIGMA) • NaCl (item no. 6400.1000; Merck) • KCl (item no.: 4936.1000; Merck) • HCl (item no.: 1.00317; Merck) • [^3H] resiniferatoxin ([^3H] RTX) (item no.: NET-1132, Perkin-Elmer) • Resiniferatoxin (RTX, cold) (item no.: 550-179-M001, Alexis) • D-Glucose (item no.: 1.08337.1000, Merck) • Sucrose (item no.: S-9378, Sigma) • α1-acid glycoprotein (item no.: G-3643, Sigma) • BSA (bovine serum albumin, item no.: A-2153, Sigma) • GF/B filter mats (Brandel Inc., cat. no. FP 100, size: 2¼″×12¼″)
Buffer: (Concentration values in brackets in each case in mM)
• HEPES (10); KCl (5); NaCl (5.8); CaCl (0.75); MgCl (2.0); D-glucose (12); • sucrose (137). The pH value is adjusted at room temperature using 20% strength HCl. B. Preparation of Membranes
The cervical region and one third of the following thoracic region is isolated from the spinal cord of male Sprague Dawley rats (breeder: Charles River Deutschland, 32699 Extertal) and used for preparation of the membrane. After the combined tissue is weighed, it is homogenized in ice-cooled buffer of the above-stated composition. 20 ml of buffer were used per 1 g of tissue (1:20 weight/volume). Homogenisation performed with a homogeniser from Kinematica, model Polytron PT-3000 with PT-DA-3012/2 drive unit. The spinal cord tissue is disrupted within 60 seconds in the cold buffer with ice cooling at a rotational speed of 6000 rpm. The material is then centrifuged for 10 minutes at 1000 g and +4° C. and the resultant precipitate discarded. The […] in the same volume of buffer of the above-stated composition. The material is then centrifuged for 40 minutes at 48,000 g and +4° C. and the supernatant discarded. The resultant precipitate is resuspended in 30 ml of buffer of the above-stated composition and used in this form in the vanilloid receptor (VR1) assay.
Incubation is performed in the water bath for one hour at 37° C. The samples are then placed in an ice bath for 15 minutes. In order to minimise nonspecific adsorption of the RTX, 100 μg of α1-acid glycoprotein (in 50 μl of buffer) are added to each incubation tube. The samples are then thoroughly mixed on a vortex shaker and left to stand for 10 minutes. The batches are then filtered with the assistance of the model M-24R “Brandel Cell Harvester” through a GF/B glass fiber filter mat which has been presoftened in tris buffer. The filter is then rinsed through 3 times with 4 ml portions of ice-cold HEPES buffer of the above-stated composition for each sample. The filters are transferred into scintillation counter vessels, each is combined with a 10 ml portion of “Ready Protein” scintillating material, and the vessels are closed with screw caps. The vessels are shaken on the vortex shaker and left to stand for at least 15 hours in the fume cupboard. The samples are then measured on the β-counter (model 1409 Wallac, Perkin Elmer, 63110 Rogau-Jügesheim, Germany).

For assay [3], the target named is T3, vanilloid receptor (VR1) (Rattus norvegicus, UniProt O35433).
T3 construct: expressed in transfected cells; host or cells: CHO K1 cells (ECACC)
As to the kind of experiment: Functional investigations on vanilloid receptor (VR1): Ca2+ influx FLIPR assay in CHO K1 cells stably transfected with the VR1 gene. Type of assay: cell-based, rats. The conditions noted are these: for inhibition at 10 µM: CHO-K1, read-out: % Inhibition [1]; for % Activation [1]: method (b), substance 10 μM, relative to Ca2+ signal after 10 μM capsaicin, means from 4–5 measurements. The text has this: (b) Functional Investigations on Vanilloid Receptor (VR1)
The agonistic or antagonistic action of the substances to be investigated on the vanilloid receptor (VR1) may be determined with the following assay. According to this assay, the influx of Ca^2+ through the channel is quantified with the assistance of a Ca^2+-sensitive dye (type Fluo4, Molecular Probes Europe BV, Leiden, Netherlands) in a Fluorescent Imaging Plate Reader (FLIPR, Molecular Devices, Sunnyvale, USA).
Chinese hamster ovary cells (CHO K1 cells, European Collection of Cell Cultures (ECACC), Great Britain) are stably transfected with the VR1 gene. For functional investigations, these cells are plated out onto poly-D-lysine-coated, black 96 well plates with a clear bottom (BD Biosciences, Heidelberg, Germany) at a density of 25,000 cells/well. The cells are incubated overnight at 37° C. and 5% CO2 in a culture medium (Ham's Nutrient Mixture F12, 10 vol. % FCS (foetal calf serum), 18 μg/mL L-proline). On the following day, the cells are incubated with Fluo4 (Fluo4 2 μM, Pluronic F127 0.01 vol. %, Molecular Probes in HBSS (Hank's buffered saline solution), Gibco Invitrogen GmbH, Karlsruhe, Germany) for 30 minutes at 37° C. The plates are then washed 3 times with HBSS buffer and, after a further 15 minutes' incubation at room temperature, used for Ca^2+ measurement in the FLIPR. Ca^2+-dependent fluorescence is here measured before and after addition of the substances to be investigated (wavelength λex=488 nm, λem=540 nm). Quantification proceeds by measuring the highest fluorescence intensity (FC, fluorescence counts) over time.
The FLIPR protocol comprises 2 additions of substance. […] The percentage inhibition in comparison with the maximum achievable inhibition with 10 μM capsazepine is calculated.

Counter-ions that a name gives are not always drawn.

T1 sequence (P20272 whole entry): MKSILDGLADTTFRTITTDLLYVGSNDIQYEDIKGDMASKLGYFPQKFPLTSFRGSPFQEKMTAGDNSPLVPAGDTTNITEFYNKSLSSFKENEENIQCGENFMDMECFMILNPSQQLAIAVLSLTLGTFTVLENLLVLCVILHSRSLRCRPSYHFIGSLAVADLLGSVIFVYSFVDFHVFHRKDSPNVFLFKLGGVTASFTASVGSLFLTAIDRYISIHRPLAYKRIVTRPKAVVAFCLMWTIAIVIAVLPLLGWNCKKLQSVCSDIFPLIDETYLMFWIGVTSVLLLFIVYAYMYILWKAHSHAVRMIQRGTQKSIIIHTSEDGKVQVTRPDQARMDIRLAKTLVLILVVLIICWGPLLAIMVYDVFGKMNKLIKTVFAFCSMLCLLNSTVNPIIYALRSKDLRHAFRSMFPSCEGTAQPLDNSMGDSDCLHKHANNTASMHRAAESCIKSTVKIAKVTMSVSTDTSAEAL
T3 sequence (O35433 whole entry): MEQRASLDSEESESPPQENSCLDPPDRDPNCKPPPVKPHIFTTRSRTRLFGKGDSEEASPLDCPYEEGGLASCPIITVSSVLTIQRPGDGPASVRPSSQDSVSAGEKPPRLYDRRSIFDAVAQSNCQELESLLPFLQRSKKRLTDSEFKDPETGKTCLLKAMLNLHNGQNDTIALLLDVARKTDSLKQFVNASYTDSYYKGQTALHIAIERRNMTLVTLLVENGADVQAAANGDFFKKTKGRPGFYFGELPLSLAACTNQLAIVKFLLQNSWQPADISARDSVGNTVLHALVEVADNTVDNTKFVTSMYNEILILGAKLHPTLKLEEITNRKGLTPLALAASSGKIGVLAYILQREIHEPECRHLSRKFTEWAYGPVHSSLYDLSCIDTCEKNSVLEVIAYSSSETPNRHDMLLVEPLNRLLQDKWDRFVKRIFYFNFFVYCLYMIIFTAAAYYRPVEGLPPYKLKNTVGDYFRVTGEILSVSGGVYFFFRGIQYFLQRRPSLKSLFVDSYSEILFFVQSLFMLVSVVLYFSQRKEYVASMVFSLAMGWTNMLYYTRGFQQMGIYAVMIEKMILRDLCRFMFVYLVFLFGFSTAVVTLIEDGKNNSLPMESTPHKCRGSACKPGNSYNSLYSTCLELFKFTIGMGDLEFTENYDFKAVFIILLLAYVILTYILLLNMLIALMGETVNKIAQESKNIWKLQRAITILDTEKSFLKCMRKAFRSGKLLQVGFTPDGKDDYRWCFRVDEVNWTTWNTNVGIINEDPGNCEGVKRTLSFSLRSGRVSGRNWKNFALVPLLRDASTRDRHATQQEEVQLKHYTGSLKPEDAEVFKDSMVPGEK
T2 sequence (O35433 whole entry): as above

Take `Cc1cc(C)n2c(NC(C)(C)CC(C)(C)C)c(-c3ccsc3)nc2c1` [Example 1, (5,7-Dimethyl-2-thiophen-3-yl-imidazo[1,2-a]pyridin-3-yl)-(1,1,3,3-tetramethylbutyl)-amine hydrochloride]: the inhibition at 10 µM in assay [1] is 43%; in assay [2] it was 42.5%.
For the compound `CC(C)(C)CC(C)(C)Nc1c(-c2ccsc2)nc2ccccn12` [Example 2, (1,1,3,3-Tetramethylbutyl)-(2-thiophen-3-yl-imidazo-[1,2-a]pyridin-3-yl)amine hydrochloride], the inhibition at 10 µM in assay [1] was 47%; in assay [3] it was 32.2%; in assay [2], 36%.
As to `Cc1ccn2c(NC(C)(C)CC(C)(C)C)c(-c3ccsc3)nc2c1.Cl` [Example 3, (7-Methyl-2-thiophene-3-yl-imidazo[1,2-a]pyridin-3-yl)-(1,1,3,3-tetramethylbutyl)-amine hydrochloride], the inhibition at 10 µM in assay [1] worked out at 35.5%. Also, in assay [3], the inhibition at 10 µM came out at 65% and the “% Activation [1]” value is reported as 30.1%.
As to `CC(C)(C)CC(C)(C)Nc1c(-c2ccoc2)nc2ccccn12` [Example 4, (2-Furan-3-yl-imidazo[1,2-a]pyridin-3-yl)-(1,1,3,3-tetramethylbutyl)amine hydrochloride], the inhibition at 10 µM amounted to 35% in assay [1] and 44.1% in assay [3].
On to `Cc1ccn2c(NC(C)(C)CC(C)(C)C)c(-c3ccoc3)nc2c1.Cl` [Example 5, (2-Furan-3-yl-7-methyl-imidazo[1,2-a]pyridin-3-yl)-(1,1,3,3-tetramethylbutyl)amine hydrochloride], for which the inhibition at 10 µM in assay [1] stood at 32.7%. Also, in assay [3], the inhibition at 10 µM was 80.7% and the “% Activation [1]” value stood at 32.4%.

One may read the inhibition as the percentage by which the read-out fell short of the control.
